Data published in PubChem BioAssay (NCI).
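Each compound was tested at five concentrations against cells in 96-well plates for 48 hours. GI50 = concentration required for 50% inhibition of growth. Definition used: TGI = concentration required for complete inhibition of growth.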

Assays:
Assay in all cases: growth of human tumour cells (NCI), 48 h; in the data active = GI50 below about 0.43 µM; inactive = the rest
786-0 renal = system: 786-0 renal
A498 renal = system: A498 renal
A549 NSCLC = system: A549 NSCLC
ACHN renal = system: ACHN renal
BT-549 breast = system: BT-549 breast
CAKI-1 renal = system: CAKI-1 renal
CCRF-CEM leukemia = system: CCRF-CEM leukemia
COLO 205 colon = system: COLO 205 colon
DU-145 prostate = system: DU-145 prostate
HCC-2998 colon = system: HCC-2998 colon
HCT-116 colon = system: HCT-116 colon
HCT-15 colon = system: HCT-15 colon
HL-60(TB) leukemia = system: HL-60(TB) leukemia
HOP-62 NSCLC = system: HOP-62 NSCLC
HS 578T breast = system: HS 578T breast
HT29 colon = system: HT29 colon
IGROV1 ovarian = system: IGROV1 ovarian
K-562 leukemia = system: K-562 leukemia
KM12 colon = system: KM12 colon
LOX IMVI melanoma = system: LOX IMVI melanoma
M14 melanoma = system: M14 melanoma
MALME-3M melanoma = system: MALME-3M melanoma
MCF7 breast = system: MCF7 breast
MDA-MB-231 breast = system: MDA-MB-231 breast
MDA-MB-435 = system: MDA-MB-435
MOLT-4 leukemia = system: MOLT-4 leukemia
NCI-H226 lung = system: NCI-H226 lung
NCI-H23 lung = system: NCI-H23 lung
NCI-H460 lung = system: NCI-H460 lung
NCI-H522 lung = system: NCI-H522 lung
NCI/ADR-RES ovarian = system: NCI/ADR-RES ovarian
OVCAR-3 ovarian = system: OVCAR-3 ovarian
OVCAR-4 ovarian = system: OVCAR-4 ovarian
OVCAR-5 ovarian = system: OVCAR-5 ovarian
OVCAR-8 ovarian = system: OVCAR-8 ovarian
PC-3 prostate = system: PC-3 prostate
RPMI-8226 leukemia = system: RPMI-8226 leukemia
RXF 393 renal = system: RXF 393 renal
SF-268 CNS = system: SF-268 CNS
SF-295 CNS = system: SF-295 CNS
SF-539 CNS = system: SF-539 CNS
SK-MEL-2 melanoma = system: SK-MEL-2 melanoma
SK-MEL-28 melanoma = system: SK-MEL-28 melanoma
SK-MEL-5 melanoma = system: SK-MEL-5 melanoma
SK-OV-3 ovarian = system: SK-OV-3 ovarian
SN12C renal = system: SN12C renal
SNB-19 CNS = system: SNB-19 CNS
SNB-75 CNS = system: SNB-75 CNS
SR leukemia = system: SR leukemia
SW-620 colon = system: SW-620 colon
T-47D breast = system: T-47D breast
TK-10 renal = system: TK-10 renal
U251 CNS = system: U251 CNS
UACC-257 melanoma = system: UACC-257 melanoma
UACC-62 melanoma = system: UACC-62 melanoma
UO-31 renal = system: UO-31 renal

COc1cc(F)c(F)cc1C(=O)c1cnc(NC2CCN(S(C)(=O)=O)CC2)nc1N
20.4 µM: TGI (MOLT-4 leukemia)
15.7 µM: TGI (OVCAR-3 ovarian)
24.2 µM: TGI (MALME-3M melanoma)
> 25 µM: TGI (786-0 renal) | TGI (A549 NSCLC) | TGI (CAKI-1 renal) | TGI (HCC-2998 colon) | TGI (HCT-116 colon) | TGI (HCT-15 colon) | TGI (HT29 colon) | TGI (K-562 leukemia) | TGI (M14 melanoma) | TGI (MCF7 breast) | TGI (MDA-MB-231 breast) | TGI (MDA-MB-435) | TGI (NCI-H522 lung) | TGI (NCI/ADR-RES ovarian) | TGI (OVCAR-4 ovarian) | TGI (OVCAR-8 ovarian) | TGI (PC-3 prostate) | TGI (SK-MEL-28 melanoma) | TGI (SK-OV-3 ovarian) | TGI (SN12C renal) | TGI (SNB-19 CNS)
11.9 µM: TGI (A498 renal)
12.6 µM: TGI (SK-MEL-2 melanoma)
11.1 µM: TGI (SF-539 CNS)
> 14.4 µM: TGI (SK-MEL-5 melanoma)
> 22.2 µM: TGI (HOP-62 NSCLC)
10.9 µM: TGI (SNB-75 CNS)
> 18 µM: TGI (NCI-H23 lung)
7.18 µM: TGI (RXF 393 renal)
19.3 µM: TGI (TK-10 renal)
20 µM: TGI (SF-268 CNS)
> 23.1 µM: TGI (OVCAR-5 ovarian)
23.7 µM: TGI (SF-295 CNS)
> 22.4 µM: TGI (KM12 colon)
24.8 µM: TGI (SW-620 colon) | TGI (U251 CNS)
> 20.7 µM: TGI (LOX IMVI melanoma)
24.3 µM: TGI (NCI-H460 lung)
> 21.8 µM: TGI (HS 578T breast)
10.2 µM: TGI (SR leukemia)
10 µM: TGI (HL-60(TB) leukemia)
> 21.6 µM: TGI (DU-145 prostate)
inactive: GI50 (786-0 renal) 5.93 µM | GI50 (A498 renal) 4.62 µM | GI50 (A549 NSCLC) 3.18 µM | GI50 (ACHN renal) 3.19 µM | GI50 (BT-549 breast) 4.29 µM | GI50 (CAKI-1 renal) 3.79 µM | GI50 (CCRF-CEM leukemia) 4.86 µM | GI50 (COLO 205 colon) 2.42 µM | GI50 (DU-145 prostate) 5.66 µM | GI50 (HCC-2998 colon) 4.32 µM | GI50 (HCT-116 colon) 2.16 µM | GI50 (HCT-15 colon) 3.46 µM | GI50 (HL-60(TB) leukemia) 2.01 µM | GI50 (HOP-62 NSCLC) 6.17 µM | GI50 (HS 578T breast) 4.71 µM | GI50 (HT29 colon) 3.7 µM | GI50 (IGROV1 ovarian) 5.11 µM | GI50 (K-562 leukemia) 7.29 µM | GI50 (KM12 colon) 3.12 µM | GI50 (LOX IMVI melanoma) 3.16 µM | GI50 (M14 melanoma) 4.73 µM | GI50 (MALME-3M melanoma) 2.78 µM | GI50 (MCF7 breast) 0.76 µM | GI50 (MDA-MB-231 breast) 3.04 µM | GI50 (MDA-MB-435) 3.55 µM | GI50 (MOLT-4 leukemia) 3.4 µM | GI50 (NCI-H226 lung) 3.1 µM | GI50 (NCI-H23 lung) 2.62 µM | GI50 (NCI-H460 lung) 1.16 µM | GI50 (NCI-H522 lung) 4.67 µM | GI50 (NCI/ADR-RES ovarian) 6.48 µM | GI50 (OVCAR-3 ovarian) 4.48 µM | GI50 (OVCAR-4 ovarian) 6.4 µM | GI50 (OVCAR-5 ovarian) 2.62 µM | GI50 (OVCAR-8 ovarian) 4.43 µM | GI50 (PC-3 prostate) 2 µM | GI50 (RPMI-8226 leukemia) 3.66 µM | GI50 (RXF 393 renal) 3.01 µM | GI50 (SF-268 CNS) 5.65 µM | GI50 (SF-295 CNS) 2.9 µM | GI50 (SF-539 CNS) 3.85 µM | GI50 (SK-MEL-2 melanoma) 3.86 µM | GI50 (SK-MEL-28 melanoma) 4.08 µM | GI50 (SK-MEL-5 melanoma) 2.07 µM | GI50 (SK-OV-3 ovarian) 10 µM | GI50 (SN12C renal) 4.49 µM | GI50 (SNB-19 CNS) 2.32 µM | GI50 (SNB-75 CNS) 3.83 µM | GI50 (SR leukemia) 1.23 µM | GI50 (SW-620 colon) 1.27 µM | GI50 (T-47D breast) 4.58 µM | GI50 (TK-10 renal) 2.92 µM | GI50 (U251 CNS) 2.42 µM | GI50 (UACC-257 melanoma) 3.56 µM | GI50 (UACC-62 melanoma) 3.13 µM | GI50 (UO-31 renal) 4.75 µM
18.6 µM: TGI (BT-549 breast)
> 23.6 µM: TGI (ACHN renal)
> 19.8 µM: TGI (UO-31 renal)
22 µM: TGI (NCI-H226 lung)
> 16.2 µM: TGI (RPMI-8226 leukemia)
6.14 µM: TGI (COLO 205 colon)
7.63 µM: TGI (UACC-62 melanoma)
> 22.7 µM: TGI (UACC-257 melanoma)
24.5 µM: TGI (IGROV1 ovarian)
23.8 µM: TGI (T-47D breast)
18.8 µM: TGI (CCRF-CEM leukemia)
